This is an account of results in patent publication EP1283052A1, “Pharmaceutical composition containing caspase-8 and /or caspase-9 useful for overcoming glucocorticoid- and cancer therapy-induced apoptosis of tumours” (Deutsches Krebsforschungszentrum Stiftung des öffentlichen …, priority 2001, dated 2003).

Structures are written as SMILES.

One experiment has as its system caspase-3. Description: Fluorometric caspase-3 activity assay in CEM leukemic T cells. It counts as cell-based, human. Conditions: cisplatin 2 µg/ml alone, Fig. 1c. The method, then:
• (a) Human epidermoid lung cancer cells (P693) were injected into nude mice. At a tumour volume of 500 mm^3 weekly treatment with cisplatin (5mg/kg/week) was started. Cisplatin was injected intraperitoneally in the absence (CIS) or presence (DEX/CIS) of DEX which was added to the drinking water (0.28 mg/L) for the duration of the experiment. […] As controls, tumor growth of xenografts from mice which received neither cisplatin nor DEX (CO) or from mice which received DEX only (DEX) was determined. The tumour volume in each animal was measured at weekly intervals for a period of 5 weeks. Data are presented as the means +/- SD of 6 to 8 animals. • (b) The human cervical carcinoma cell lines HeLa and P5 were γ-irradiated (10 Gy) or treated with cisplatin (2 µg/ml) in the absence (white bars) or presence (black bars) of DEX (1 µM). The percentage of apoptosis was measured in untreated (CO) and stimulated cells by annexin-staining and FACS-analysis at the time points indicated. (c) P5, P693 and human leukemic T cells (CEM) cells were treated with cisplatin (2 µg/ml) in the absence or presence of DEX as indicated. 24 and 48 h following treatment cells were lysed and caspase-3 activity was determined by a fluorescent caspase-3 assay and spectroscopy.

The next experiment has as its system caspase-9 and -6. The experiment is described as follows: Fluorometric caspase-6/9 activity assay in CEM cells. It counts as cell-based, human. The note with it: cisplatin 2 µg/ml alone, Fig. 5a. As for the experimental part: • (a) P693 and CEM cells were treated with cisplatin (2 µg/ml) in the absence or presence of DEX (1 µM) as indicated. 24 and 48 h following treatment cells were lysed and caspase-9 activity was determined using a fluorescent caspase-9 assay and spectroscopy. • (b) P5 and CEM cells were treated as described above. 24 h after stimulation Apaf-1 was immunoprecipitated from the cell extracts using a […]. Aliquotes of the precipitates were separated by three different gels and analysed by Western blotting using rabbit polyclonal Apaf-1, mAb cytochrome c or caspase-9 antibodies. The antibody heavy chain band (IgGH) ensures equal conditions. […]
• (A) Cell culture. […] The mice were given 0.28 mg/L DEX in drinking water, and the amount of water consumed was monitored. […] The tumour volumes were measured using callipers, and calculated using, as an approximation, the formula for volume of a hemi-ellipsoid: π(width^2 x length)/6. […] Early apoptotic changes were identified by staining of cells with fluoresceinthiocyanate (FITC)-conjugated annexin V and propidium iodide (Becton Dickinson, Heidelberg, Germany) and analysed by flow cytometry (FACScan, Becton Dickinson) as described (Herr et al., EMBO J. 16 (1997), 6200-6208) • (E) Immunohistochemistry. […] Bound antibodies were detected by FITC conjugated anti-mouse or anti-rabbit IgG (Molecular Probes Europe, Leiden, The Netherlands). […]

As to `N.N.[Cl][Pt][Cl]` [cisplatin], in the experiment with caspase-3, the caspase-3 activity result is “responded earlier at 24 h with increased activity at 48 h”. Also, the caspase-6/9 activity result in the experiment on caspase-9 and -6 was “induced 24 h following cisplatin in P693 and CEM cells with increasing activity at 48 h”.
